pIC50: −log10 of the molar value. Like-named read-outs stand apart in the source and are kept apart here.
What was measured:
Aurora A = biological target: T1, Aurora A (Homo sapiens, UniProt O14965); experiment: Biochemical Aurora A kinase assay (LANCE Ultra TR-FRET); settings: for AurA Selectivity: IC50 AurA/IC50 TTK (biochemical assays); for pIC50: full-length Aurora A, 2 μM ATP
T1 construct: full-length Aurora A enzyme (Carna Biosciences, cat. no. 05-101); purchased Carna Biosciences 05-101
T1 sequence (O14965 1-403): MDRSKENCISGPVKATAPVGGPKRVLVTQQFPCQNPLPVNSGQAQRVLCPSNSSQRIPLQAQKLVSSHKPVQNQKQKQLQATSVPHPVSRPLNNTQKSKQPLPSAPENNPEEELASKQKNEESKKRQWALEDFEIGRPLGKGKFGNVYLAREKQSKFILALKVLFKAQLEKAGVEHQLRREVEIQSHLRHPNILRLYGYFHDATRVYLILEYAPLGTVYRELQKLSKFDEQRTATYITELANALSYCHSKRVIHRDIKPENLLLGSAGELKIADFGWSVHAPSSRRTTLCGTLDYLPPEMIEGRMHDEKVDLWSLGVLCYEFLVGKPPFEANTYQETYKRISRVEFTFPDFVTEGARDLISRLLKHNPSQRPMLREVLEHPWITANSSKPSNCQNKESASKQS
Procedure: To determine the inhibitory activity of the compounds on Aurora A, the LANCE® Ultra TR-FRET assay (Perkin Elmer) was used. […] After 2 hours, the reaction was stopped by the addition of 5 μl 100 mM EDTA. […] Time-resolved fluorescence was measured on an Envision multilabel reader (Perkin Elmer, Waltham, Mass., USA). IC50 were calculated using XLfit™5 software (ID Business Solutions, Ltd., Surrey, U.K.).

[1] = biological target: Polo-like kinase 1 (PLK1) (Homo sapiens, UniProt P53350); experiment: Biochemical Polo-like kinase 1 kinase assay (LANCE Ultra TR-FRET); settings: for PLK1 Selectivity: IC50 PLK1/IC50 TTK (biochemical assays)
Polo-like kinase 1 (PLK1), sequence (P53350 whole entry): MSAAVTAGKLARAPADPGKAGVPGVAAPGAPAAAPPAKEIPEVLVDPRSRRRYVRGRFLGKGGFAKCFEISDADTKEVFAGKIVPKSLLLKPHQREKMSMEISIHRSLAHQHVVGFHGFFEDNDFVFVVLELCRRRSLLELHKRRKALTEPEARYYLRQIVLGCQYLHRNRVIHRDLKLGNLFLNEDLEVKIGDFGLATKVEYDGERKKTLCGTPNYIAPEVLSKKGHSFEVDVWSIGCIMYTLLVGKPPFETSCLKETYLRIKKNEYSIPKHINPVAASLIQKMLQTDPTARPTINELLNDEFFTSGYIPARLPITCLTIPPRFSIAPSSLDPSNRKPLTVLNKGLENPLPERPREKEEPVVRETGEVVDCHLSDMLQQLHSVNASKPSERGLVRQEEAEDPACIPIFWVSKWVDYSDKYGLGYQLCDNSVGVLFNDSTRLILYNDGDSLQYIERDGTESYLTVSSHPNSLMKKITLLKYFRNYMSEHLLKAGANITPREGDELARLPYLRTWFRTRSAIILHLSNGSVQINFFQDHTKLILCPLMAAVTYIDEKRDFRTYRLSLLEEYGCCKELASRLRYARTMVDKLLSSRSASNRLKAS
Procedure: To determine the inhibitory activity of the compounds on Polo-like kinase 1 (PLK1), the LANCE® Ultra TR-FRET assay (Perkin Elmer) was used. […] After 4 hours, the reaction was stopped by the addition of 5 μl 100 mM EDTA. […] Time-resolved fluorescence was measured on an Envision multilabel reader (Perkin Elmer, Waltham, Mass. USA). IC50 were calculated using XLfit™5 software (ID Business Solutions, Ltd., Surrey, U.K.).

Aurora C = biological target: T2, Aurora C (Homo sapiens, UniProt Q9UQB9); experiment: Biochemical Aurora C kinase assay (LANCE Ultra TR-FRET); settings: for AurC Selectivity: IC50 AurC/IC50 TTK (biochemical assays); for pIC50: full-length Aurora C, 5 μM ATP
T2 construct: full-length Aurora C enzyme (Carna Biosciences, cat. no. 05-103); purchased Carna Biosciences 05-103
T2 sequence (Q9UQB9 1-309): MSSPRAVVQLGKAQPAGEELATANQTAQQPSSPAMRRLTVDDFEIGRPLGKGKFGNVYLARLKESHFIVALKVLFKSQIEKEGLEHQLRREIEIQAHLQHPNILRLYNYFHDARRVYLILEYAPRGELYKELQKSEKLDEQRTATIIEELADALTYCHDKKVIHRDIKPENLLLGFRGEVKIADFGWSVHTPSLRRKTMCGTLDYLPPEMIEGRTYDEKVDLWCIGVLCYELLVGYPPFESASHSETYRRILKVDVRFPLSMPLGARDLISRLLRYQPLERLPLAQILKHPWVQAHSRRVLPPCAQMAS
Procedure: To determine the inhibitory activity of the compounds on Aurora C, the LANCE® Ultra TR-FRET assay (Perkin Elmer) was used. […] After pre-incubation of 1 hour in the dark at room temperature, ULightTM-labeled PLK([MUT]) substrate peptide (Perkin Elmer, cat. no. TRF-0110) and ATP were added, to start the reaction. […] After 3 hours, the reaction was stopped by the addition of 5 μl 100 mM EDTA. […] Time-resolved fluorescence was measured on an Envision multilabel reader (Perkin Elmer, Waltham, Mass., USA). IC50 were calculated using XLfitTM5 software (ID Business Solutions, Ltd., Surrey, U.K.).

MOLT-4 cancer cell line = experiment: Cell proliferation assay, MOLT-4 cancer cell line (ATPlite); assay type: cell-based; settings: Homo sapiens;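 also: luminescence read-out, percent growth versus compound-free DMSO wells as maximum growth, start-of-incubation signal separating growth from cell death, IC50 from logistic curve fit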
Procedure: 5 μL of compound solution was added and the plates were incubated for an additional 72 hours after which 25 μL of ATPlite 1Step™ (PerkinElmer, Groningen, The Netherlands) solution was added to each well. Luminescence was recorded on an Envision multimode reader. The cell signal at the start of incubation was recorded separately in order to distinguish between cell population growth and cell death. In addition, maximum growth was determined by incubation of a duplicate without compound in the presence of 0.4% DMSO. Percentage growth was used as the main y-axis signal. IC50s were fitted by non-linear regression using IDBS XLfit™5 using a 4-parameter logistic curve, yielding a maximum signal, minimum signal, hill-parameter and IC50.

A375 = settings: mouse xenograft model; cited from earlier work
human cancer cell lines = settings: Colombo et al.; read-out: IC50 proliferation of cancer cell lines from different tumor origin; cited from earlier work
A2780 = settings: mouse xenograft model; cited from earlier work
[2] = test system: HeLa-Matu cervical tumor cell; settings: cited from earlier work
[3] = MOLT-4, 72 hours incubation, ATPlite 1Step, read-out: IC50 MOLT-4 cell proliferation
[4] = MOLT-4, worded 'TTK cellular assay', read-out: IC50 in the TTK cellular assay
[5] = MOLT-4, read-out: IC50 in the TTK cellular assay

Structure (SMILES) | AurA Selectivity (Aurora A) | pIC50 (Aurora A) | pIC50 [1] | PLK1 Selectivity [1] | AurC Selectivity (Aurora C) | pIC50 (Aurora C) | pIC50 (MOLT-4 cancer cell line; [4]) | pIC50 (MOLT-4 cancer cell line; [3]) | Tumor growth, A375 xenograft (A375) | pIC50 (human cancer cell lines) | Tumor growth, A2780 xenograft (A2780) | pIC50 (MOLT-4 cancer cell line; [5]) | Efficacy of paclitaxel in combination ([2]; HeLa-Matu mouse xenograft model, with paclitaxel) | HeLa-Matu cervical tumor cell growth ([2]; mouse xenograft model)
CCc1n[nH]c(CC)c1NC(=O)c1ccn2c1CCc1cnc(Nc3ccc(N4CCN(C)CC4)cc3OC(F)F)nc1-2 [Example 33, N-(3,5-diethyl-1H-pyrazol-4-yl)-2-[2-(difluoromethoxy)-4-(4-methylpiperazin-1-yl)anilino]-5,6-dihydropyrimido[4,5-e]indolizine-7-carboxamide] | >500 | ≤ 7.00 | ≤ 6.60 | >500 | >500 | ≤ 7.00 |  | > 7.30 |  |  |  |  |  | 
CCc1nn(CCOCCOC)c(CC)c1NC(=O)c1ccn2c1CCc1cnc(Nc3ccc(N4CCN(C)CC4)cc3OC)nc1-2 [Example 141, N-[3,5-diethyl-1-[2-(2-methoxyethoxy)ethyl]pyrazol-4-yl]-2-[2-methoxy-4-(4-methylpiperazin-1-yl)anilino]-5,6-dihydropyrimido[4,5-e]indolizine-7-carboxamide] | >200 | ≤ 7.00 | ≤ 6.60 | >500 | >500 | ≤ 7.00 |  | > 7.30 |  |  |  |  |  | 
CCc1cccc(CC)c1NC(=O)c1nn(C)c2c1CCc1cnc(Nc3ccc(C(=O)NC4CCN(C)CC4)cc3OC(F)(F)F)nc1-2 [NMS-P715] |  |  |  |  |  |  |  |  | inhibited tumor growth | ≤ 6.00 | inhibited tumor growth |  |  | 
CCOCCOCCn1nc(CC)c(NC(=O)c2ccn3c2CCc2cnc(Nc4ccc(N5CCNCC5)cc4OC)nc2-3)c1CC [Example 151, N-[1-[2-(2-ethoxyethoxy)ethyl]-3,5-diethyl-pyrazol-4-yl]-2-(2-methoxy-4-piperazin-1-yl-anilino)-5,6-dihydropyrimido[4,5-e]indolizine-7-carboxamide] | >100 | ≤ 7.00 | ≤ 6.60 | >500 | >500 | ≤ 7.00 | > 7.30 |  |  |  |  |  |  | 
CCNCC(=O)N1CCN(c2ccc(Nc3ncc4c(n3)-n3ccc(C(=O)Nc5c(CC)nn(CCOCCOC)c5CC)c3CC4)c(OC)c2)CC1 [Example 158, N-[3,5-diethyl-1-[2-(2-methoxyethoxy)ethyl]pyrazol-4-yl]-2-[4-[4-[2-(ethylamino)acetyl]piperazin-1-yl]-2-methoxy-anilino]-5,6-dihydropyrimido[4,5-e]indolizine-7-carboxamide] | >200 | ≤ 7.00 | ≤ 6.60 | >500 | >500 | ≤ 7.00 | > 7.30 |  |  |  |  |  |  | 
CCOCCOCCn1nc(C)c(NC(=O)c2ccn3c2CCc2cnc(Nc4ccc(N5CCN(C)CC5)cc4OC)nc2-3)c1C [Example 148, N-[1-[2-(2-ethoxyethoxy)ethyl]-3,5-dimethyl-pyrazol-4-yl]-2-[2-methoxy-4-(4-methylpiperazin-1-yl)anilino]-5,6-dihydropyrimido[4,5-e]indolizine-7-carboxamide] |  | ≤ 7.00 | ≤ 6.60 |  |  | ≤ 7.00 |  |  |  |  |  | > 7.30 |  | 
CC(C)CNc1nccn2c(-c3ccc(C(=O)NC4CC4)cc3)cnc12 [Mps-BAY2b] |  |  |  |  |  |  |  |  |  |  |  |  | increased the efficacy of paclitaxel | inhibit HeLa-Matu cervical tumor cell growth
COCCOCCOCCn1nc(C)c(NC(=O)c2ccn3c2CCc2cnc(Nc4ccc(-c5c(C)nn(C)c5C)cc4OC)nc2-3)c1C [Example 160, N-[1-[2-[2-(2-methoxyethoxy)ethoxy]ethyl]-3,5-dimethyl-pyrazol-4-yl]-2-[2-methoxy-4-(1,3,5-trimethylpyrazol-4-yl)anilino]-5,6-dihydropyrimido[4,5-e]indolizine-7-carboxamide] |  | ≤ 7.00 | ≤ 6.60 |  |  | ≤ 7.00 |  |  |  |  |  | > 7.30 |  | 

Further lines, with some results ahead:

AurA Selectivity (Aurora A) | pIC50 (Aurora A) | pIC50 [1] | PLK1 Selectivity [1] | AurC Selectivity (Aurora C) | pIC50 (Aurora C) | pIC50 (MOLT-4 cancer cell line; [4]) | Structure (SMILES) | pIC50 (MOLT-4 cancer cell line; [3]) | Tumor growth, A375 xenograft (A375) | pIC50 (human cancer cell lines) | Tumor growth, A2780 xenograft (A2780) | pIC50 (MOLT-4 cancer cell line; [5]) | Efficacy of paclitaxel in combination ([2]; HeLa-Matu mouse xenograft model, with paclitaxel) | HeLa-Matu cervical tumor cell growth ([2]; mouse xenograft model)
>200 | ≤ 7.00 | ≤ 6.60 | >500 | >200 | ≤ 7.00 | > 7.30 | CCc1nn(CCOCCOC)c(CC)c1NC(=O)c1ccn2c1CCc1cnc(Nc3ccc(N4CCN(C(=O)COC)CC4)cc3OC)nc1-2 [Example 159, N-[3,5-diethyl-1-[2-(2-methoxyethoxy)ethyl]pyrazol-4-yl]-2-[2-methoxy-4-[4-(2-methoxyacetyl)piperazin-1-yl]anilino]-5,6-dihydropyrimido[4,5-e]indolizine-7-carboxamide] |  |  |  |  |  |  | 
>200 | ≤ 7.00 | ≤ 6.60 | >500 | >500 | ≤ 7.00 | > 7.30 | COCCOCCOCCn1nc(C)c(NC(=O)c2ccn3c2CCc2cnc(Nc4ccc(N5CCNCC5)cc4OC)nc2-3)c1C [Example 156, N-[1-[2-[2-(2-methoxyethoxy)ethoxy]ethyl]-3,5-dimethyl-pyrazol-4-yl]-2-(2-methoxy-4-piperazin-1-yl-anilino)-5,6-dihydropyrimido[4,5-e]indolizine-7-carboxamide] |  |  |  |  |  |  | 
>200 | ≤ 7.00 | ≤ 6.60 | >500 | >500 | ≤ 7.00 | > 7.30 | COCCOCCn1nc(C)c(NC(=O)c2ccn3c2CCc2cnc(Nc4ccc(N5CCN(C)CC5)cc4OC)nc2-3)c1C [Example 149, N-[1-[2-(2-methoxyethoxy)ethyl]-3,5-dimethyl-pyrazol-4-yl]-2-[2-methoxy-4-(4-methylpiperazin-1-yl)anilino]-b,6-dihydropyrimido[4,5-e]indolizine-7-carboxamide] |  |  |  |  |  |  | 
>200 | ≤ 7.00 | ≤ 6.60 | >500 | >500 | ≤ 7.00 | > 7.30 | COCCn1nc(C)c(NC(=O)c2ccn3c2CCc2cnc(Nc4ccc(N5CCN(C(=O)C6CN(C)C6)CC5)cc4OC)nc2-3)c1C [Example 155, N-[1-(2-methoxyethyl)-3,5-dimethyl-pyrazol-4-yl]-2-[2-methoxy-4-[4-(1-methylazetidine-3-carbonyl)piperazin-1-yl]anilino]-5,6-dihydropyrimido[4,5-e]indolizine-7-carboxamide] |  |  |  |  |  |  | 
>200 | ≤ 7.00 | ≤ 6.60 | >500 | >500 | ≤ 7.00 | > 7.30 | CCNCC(=O)N1CCN(c2ccc(Nc3ncc4c(n3)-n3ccc(C(=O)Nc5c(C)nn(CCOCCOCCOC)c5C)c3CC4)c(OC)c2)CC1 [Example 157, 2-[4-[4-[2-(Ethylamino)acetyl]piperazin-1-yl]-2-methoxy-anilino]-N-[1-[2-[2-(2-methoxyethoxy)ethoxy]ethyl]-3,5-dimethyl-pyrazol-4-yl]-5,6-dihydropyrimido[4,5-e]indolizine-7-carboxamide] |  |  |  |  |  |  | 
>500 | ≤ 7.00 | ≤ 6.60 | >500 | >500 | ≤ 7.00 |  | COCCOCCOCCn1nc(C)c(NC(=O)c2ccn3c2CCc2cnc(Nc4ccc(N5CCN(C)CC5)cc4OC)nc2-3)c1C [Example 138, N-[1-[2-[2-(2-methoxyethoxy)ethoxy]ethyl]-3,5-dimethyl-pyrrazol-4-yl]-2-[2-methoxy-4-(4-methylpiperazin-1-yl)anilino]-5,6-dihydropyrimido[4,5-e]indolizine-7-carboxamide] | > 7.30 |  |  |  |  |  | 

Source: patent USRE50082E1, “(5,6-dihydro)pyrimido[4,5-e]indolizines” (NETHERLANDS TRANSLATIONAL RESEARCH CENTER B.V., priority 2014, dated 2024)
